Holding throughout (assay type): in vivo
Data set [1] relates to para-chloroamphetamine (PCA)-induced ejaculation model in anaesthetized Wistar rats. The experiment in a line: Rat para-chloroamphetamine (PCA)-induced ejaculation model (ejaculation, latency, seminal vesicle pressure). The following applies: for Seminal vesicle pressure response vs vehicle, FIG. 10, FIG. 11 / Ejaculation latency vs vehicle, FIG. 9: 20 mg/kg or 10 mg/kg IP 1 h before PCA. On the procedure:
Experiments were performed to assess the effect of an acute treatment of alkaloids, mesembrine, mesembrenone, mesembrenol and mesembranol, at their maximal tolerable dose (MTD) on ejaculation latency in a para-chloroamphetamine (PCA)-induced ejaculation model in anaesthetized Wistar rats.
Adult male Wistar rats (Charles-River, France, 10-11 weeks old) were housed at least 10 days prior to the beginning of the experiments with free access to regular diet and water and maintained on an inversed 12 hour dark/light cycle (9:00/21:00). All procedures were performed in accordance with the legislation on the use of laboratory animals (NIH publication N°85-23, revised 1996) and Animal Care Regulations in force in France as of 1988 (authorization from competent French Ministry of Agriculture—Agreement No. B78-423-1, July 2017).
Rats received a single administration by intraperitoneal (IP) route of either vehicle, mesembrine, mesembrenone, mesembrenol, or mesembranol 1 hour before the in vivo evaluation of PCA-induced ejaculation as follows:
Part 1: Rats received a single IP injection of either vehicle control (0.5% hydroxypropyl methylcellulose (HPMC) in sterile water, n=10), mesembrine at 20 mg/kg (n=9), 10 mg/kg (n=11), 2 mg/kg (n=12), 200 μg/kg (n=12) and 20 μg/kg (n=10) 1 hour prior to administration of PCA. Treatment groups for Part I are outlined below in Table 2:
Part 2: Rats received a single IP injection of mesembrenone at 20 mg/kg (n=10). Treatment groups for Part 2 are outlined in Table 3.
Part 3: Rats received single IP injection of mesembrenol at 20 mg/kg (n=4) or 10 mg/kg (n=6) or mesembranol at 20 mg/kg (n==6) or 10 mg/kg (n=6). Treatment for Part 3 are outlined in Table 4.
After treatment administration, the rats underwent an evaluation of their ejaculation function induced by PCA administration. Thus, the expulsion of seminal plug(s) and seminal vesicle pressure (SVP) increase was evaluated. At the end of experimental period, the rats were euthanized by an intracardiac injection of pentobarbital (Eutasol®, Centravet, France).
Drug Preparation. Alkaloids were diluted to a 100 mg/mL final concentration (stock solution) and mixed by vortex. Then, aliquots per rat were prepared and stored at −20° C. until use. The day of experiment, 1 aliquot per rat was thawed and diluted to the desired concentration. The volume of administration was either 2 mL/kg for the IP administration or 5 mL/kg for the oral gavage, in line with good practice for administration volume in rat.
Ejaculation was induced by intraperitoneal administration of P-chloroamphetamine (PCA) at 5 mg/kg in anesthetized rats according to previously described methods (Clement el al., Role of peripheral innervation in p-chloroamphetamine-induced ejaculation in anesthetized rats. J Androl 2006; 27:381-389). PCA is an amphetamine derivative that liberates catecholamines and serotonin from monoaminergic nerve terminals. Systemic administration of PCA has been reported to induce ejaculation in both conscious (Humphries et al, 1981; Rènyi, 1985) and anesthetized (Yonezawa et al, 2000) rats.
Seminal vesicle pressure (SW) was measured as a physiological marker for the emission phase of ejaculation (Clement P, Giuliano F. Physiology and Pharmacology of Ejaculation. Basic Clint Pharmacol Toxicol 201.6 119 Suppl 3:18-25),
Rats were anesthetized and their temperature maintained at 37° C. using a homoeothermic blanket. The carotid artery was catheterized with polyethylene tubings filled with heparinized saline (50 UI/ml) to record continuously blood pressure (BP) via a pressure transducer (Elcomatic 750, Glasgow, UK). Pressure was recorded using specific data acquisition software (Elphy, CNRS, France).
For measuring SVP, a suprapubic midline incision was performed to expose seminal vesicles and a polyethylene catheter (0.50 mm), filled with mineral oil, was inserted into one seminal vesicle through the apex and connected to a pressure transducer (Elcomatic 750, Glasgow, UK). […]

In data set [2] the test system is healthy human male subjects. Put plainly: Ejaculation latency in healthy human males after pure mesembrine. The following applies: Subject D, 70 kg; 0.05 mg; Self; nasal spray (in aqueous 1% w/w NaCl).
In data set [3] the test system is healthy human male subjects. The data set is described as above. On the procedure: Experiments were performed to determine the effects of pure mesembrine on ejaculation in male subjects. 0.5 mg, 1 mg, 2.5 mg, and 5 mg doses of pure mesembrine (Cayman Chemical Company, MI, USA) were administered by oral, nasal or sublingual routes to healthy human male subjects. The formulation for oral (swallowed) and sublingual (held under tongue for 5 minutes) was 2 mg mesembrine/mL 40% aqueous for oral and sublingual. The nasal spray formulation was 0.4 mg mesembrine/mL 1% w/w NaCl saline delivered via metered nasal spray device. Mesembrine was administered 20 minutes prior to sexual activity. The sexual activity was either solo masturbation (“self”) or partnered intercourse with a female partner (“partnered”). Latency time of ejaculation was measured and calculated by time from start of sexual activity to ejaculation. […] In all test cases, ejaculation coincided with orgasm. In all cases where ejaculation was not achieved, orgasm was also not achieved.

The next data set deals with Wistar rats. The experiment in a line: Maximal tolerable dose (MTD) in rats. The following applies: rat, single IP administration.
[4] abbreviates: mesembrine 20 μg/kg single IP 1 h before PCA, 30-min observation.
Setting [5] is: mesembrine 200 μg/kg single IP 1 h before PCA, 30-min observation.
Setting [6] is: mesembrine 2 mg/kg single IP 1 h before PCA, 30-min observation.
The mark [7] stands for this setting: mesembrine 10 mg/kg single IP 1 h before PCA, 30-min observation.
[8] abbreviates: mesembrine 20 mg/kg single IP 1 h before PCA, 30-min observation.

These results are taken from patent US20240050407A1, “METHODS FOR DELAY OF EJACULATION IN HUMAN MALES” (priority 2020, published 2024).

With `COc1ccc([C@@]23C=CC(=O)C[C@@H]2N(C)CC3)cc1OC` [mesembrenone], in data set [1] (20 mg/kg IP 1 h before PCA), the “Seminal vesicle pressure response vs vehicle, FIG. 7, FIG. 8” value was “decreased”. For the same compound, in data set [1] (20 mg/kg IP 1 h before PCA, 30-min observation), the “Ejaculation latency vs vehicle, FIG. 6” value is given as “delayed ejaculation”.
For `COc1ccc(C23C=CC(O)CC2N(C)CC3)cc1OC` (centres unmarked) [mesembrenol], in data set [1], the “Seminal vesicle pressure response vs vehicle, FIG. 10, FIG. 11” value is reported as “decreased”. Also, the “Ejaculation latency vs vehicle, FIG. 9” value in data set [1] (30-min observation) is “delayed ejaculation”.
The matching figures for `COc1ccc([C@@]23CC[C@@H](O)C[C@@H]2N(C)CC3)cc1OC` [mesembranol]: “decreased” and “delayed ejaculation”.
For `COc1ccc([C@@]23CCC(=O)C[C@@H]2N(C)CC3)cc1OC` [Mesembrine, mesembrine], the Qualitative experience entry in data set [2] was “Effects noticed more rapidly than oral dosing”; in data set [3] (Subject A, 77 kg, 0.5 mg, Self, sublingual (5 min under tongue)) it was “Orgasm with drug was more intense than average”; in data set [3] (Subject A, 77 kg, 1 mg, Self, sublingual (5 min under tongue)), “Onset after dosing with drug felt at around 9 min;”; in data set [3] (Subject B, 75 kg, 0.5 mg, Self, oral) it was “Significant lengthening of latency time noticed”; in data set [3] (Subject C, 100 kg, 0.5 mg, Self, oral), “Did not complete ejaculation as an effect of drug”; in data set [3] (Subject D, 70 kg, 1 mg, Self, oral) it was “Satisfactory dosing to maintain control and easily”. The Qualitative experience result was “Increased satisfaction from female partner noted” in data set [3] (Subject D, 70 kg, 2.5 mg, Partnered, oral) and “Did not complete ejaculation as an effect of drug” in data set [3] (Subject D, 70 kg, 5 mg, Partnered, oral). For the same compound, the “ejaculation during the 30-minute observation period (in words)” value in data set [1] (20 mg/kg IP 1 h before PCA) is “did not ejaculate”. Also, the “rats that did not ejaculate during the 30-min observation period following PCA injection” value in data set [1] (20 mg/kg IP 1 h before PCA) is 100%. The “Ejaculation latency (ejaculatory response vs vehicle control), FIG. 3” value in data set [1] (all dosage conditions tested (20 μg/kg to 20 mg/kg IP)) is given as “delayed ejaculatory response”. Besides, the “Seminal vesicle pressure response assessed as amplitude and AUC vs vehicle control, FIG. 4, FIG. 5” value in data set [1] (all mesembrine treatment cases (20 μg/kg to 20 mg/kg IP)) is “decreased”. The “N of ejaculating rats” value was 9/9 in data set [1] (setting [4]); 10/11 in data set [1] (setting [5]); 4/12 in data set [1] (setting [6]); 7/12 in data set [1] (setting [7]); 0/10 in data set [1] (setting [8]). Moreover, the “N of rats not ejaculating” value was 0/9 in data set [1] (setting [4]); 1/11 in data set [1] (setting [5]); 8/12 in data set [1] (setting [6]); 5/12 in data set [1] (setting [7]); 10/10 in data set [1] (setting [8]). Also, the “Percentage of ejaculating rats” value is given as 100% in data set [1] (setting [4]); 91% in data set [1] (setting [5]); 33% in data set [1] (setting [6]); 58% in data set [1] (setting [7]); 0% in data set [1] (setting [8]). Moreover, the “ejaculation latency (in words)” value in data set [3] (all doses tested, oral, nasal or sublingual, 20 minutes prior to sexual activity) is given as “extended the ejaculation latency at all doses tested”. Also, in the data set with Wistar rats, the “maximal tolerable dose (MTD)” value is on record as 20 mg/kg (MTD).
